In patent US20250090437A1, “COSMETIC COMPOUNDING AGENT, COSMETIC AND PRODUCTION METHOD THEREOF” (MIYOSHI OIL & FAT CO., LTD., priority 2019, published 2025):

Experiment: Water retention property test 2 (hydrates)
Format: physicochemical
Details: hydrate (anhydrides: aqueous solution at mono- to trihydrate concentration); for Pre-test moisture rate: before the test; for Post-test moisture rate / Rate of reduction in moisture: unsealed, 24 hours at 40° C. and 25% RH
Protocol: (2) Water retention property test 2 The water retention property of the hydrate of each compound was evaluated. Hydrates were used in the cases of the compounds C1 to C38, C40 to C49 and C56 to C59; however, since the compounds C39 and C62 to C64 were anhydrides, there were used aqueous solutions prepared by adding water so that a concentration would be that of monohydrate to trihydrate. The moisture rate of the sample(s) was confirmed using a Karl Fischer moisture meter (pre-test moisture rate: A). Next, 1.0 g of each of these samples was added to a screw tube, and this screw tube, while remaining unsealed, was then left to stand still for 24 hours in a thermo-hygrostat set to 40° C. and 25% RH. A moisture rate after 24 hours was again measured (post-test moisture rate: B), followed by calculating a rate of reduction in moisture in a similar manner as above so as to evaluate the water retention property. Here, a comparative evaluation was performed on each hydrate of the compounds C1 to C38, C40 to C49 and C56 to C59 together with an aqueous solution(s) of the compound C39 having a concentration(s) corresponding to the numbers of these hydration waters.
(monohydrates in compounds C1 to C38, C40 to C49 and C56 to C59 of working examples C62 to C99, C103 to C116 with compound C39 of working example C100, compound C62 of comparative example C4, compound C63 of comparative example C7 and compound C64 of comparative example C10)
(dihydrates in compounds C1 to C38, C40 to C49 and C56 to C59 of working examples C62 to C99, C103 to C116 with compound C39 of working example C101, compound C62 of comparative example C5, compound C63 of comparative example C8 and compound C64 of comparative example C11)
(trihydrates in compounds C1 to C38, C40 to C49 and C56 to C59 of working examples C62 to C99, C103 to C116 with compound C39 of working example C102, compound C62 of comparative example C6, compound C63 of comparative example C9 and compound C64 of comparative example C12)

Row | SMILES | Pre-test moisture rate [%] | Post-test moisture rate [%] | Rate of reduction in moisture [%]
1 | CCCC[N+](CCCC)(CCCC)CCCC.[Br-] [Comparative example C4] | 2.5 | 4.9 | 8.1
2 | CCCC[N+](CCCC)(CCCC)CCCC.[Br-] [Comparative example C5] | 10.1 | 8.6 | 15.1
3 | CCCC[N+](CCCC)(CCCC)CCCC.[Br-] [Comparative example C6] | 14.4 | 10.8 | 25.1
4 | CCCCn1cc[n+](C)c1.F[B-](F)(F)F [Comparative example C7] | 7.4 | 3.9 | 47.3
5 | CCCCn1cc[n+](C)c1.F[B-](F)(F)F [Comparative example C8] | 13.8 | 7.1 | 48.6
6 | CCCCn1cc[n+](C)c1.F[B-](F)(F)F [Comparative example C9] | 19.3 | 11.2 | 42.1
7 | OCC(O)CO [Comparative example C10] | 16.4 | 15.3 | 6.7
8 | OCC(O)CO [Comparative example C11] | 28.1 | 24.4 | 13.3
9 | OCC(O)CO [Comparative example C12] | 37.0 | 31.9 | 13.7
10 | O=C1O[C@H]([C@@H](O)CO)C(O)=C1O.OCCNCCO [Comparative example C104] | 11.4 | 11.0 | 3.5
11 | O=C1OC(C(O)CO)C(O)=C1O.OCCN(CCO)CCO (stereo not drawn) [Comparative example C105] | 10.0 | 9.8 | 2.0
12 | NC(CO)CO.O=C1O[C@H]([C@@H](O)CO)C(O)=C1O [Comparative example C106] | 11.9 | 11.7 | 1.7
13 | CC(O)C(=O)O.NCCO (stereo not drawn) [Working example C62] | 10.7 | 10.5 | 1.9
14 | CC(O)C(=O)O.OCCNCCO [Working example C63] | 15.6 | 14.9 | 4.6
15 | O=C(O)CO.OCCNCCO [Working example C64] | 16.6 | 16.1 | 3.0
16 | O=C(O)CCC(=O)O.OCCNCCO [Working example C65] | 13.9 | 13.1 | 6.0
17 | CC(O)C(=O)O.OCCN(CCO)CCO [Working example C66] | 18.4 | 17.7 | 3.8
18 | CC(=O)O.NC(CO)CO [Working example C67] | 19.3 | 18.8 | 2.8
19 | NC(CO)CO.O=C(O)CO [Working example C68] | 17.7 | 17.3 | 2.0
20 | CC(O)C(=O)O.NC(CO)CO (stereo not drawn) [Working example C69] | 16.6 | 16.1 | 2.8
21 | NC(CO)CO.O=C(O)CCC(=O)O [Working example C70] | 14.7 | 13.9 | 5.4
22 | NC(CO)CO.O=C(O)CC(O)(CC(=O)O)C(=O)O [Working example C71] | 11.3 | 10.7 | 5.4
23 | CS(=O)(=O)O.NC(CO)CO [Working example C72] | 16.1 | 16.0 | 0.4
24 | F[B-](F)(F)F.[NH3+]C(CO)CO [Working example C73] | 16.8 | 15.9 | 5.5

Row | SMILES | Pre-test moisture rate [%] | Post-test moisture rate [%] | Rate of reduction in moisture [%]
25 | Br.NC(CO)CO [Working example C74] | 17.3 | 15.7 | 9.5
26 | Cl.NC(CO)CO [Working example C75] | 22.0 | 19.7 | 10.5
27 | CC(O)C(=O)O.CCC(N)(CO)CO [Working example C76] | 14.7 | 14.3 | 3.0
28 | CCC(N)(CO)CO.O=C(O)CC(O)(CC(=O)O)C(=O)O [Working example C77] | 10.4 | 9.9 | 4.9
29 | CCC(N)(CO)CO.CS(=O)(=O)O [Working example C78] | 14.3 | 14.2 | 0.9
30 | Br.CCC(N)(CO)CO [Working example C79] | 15.3 | 13.9 | 8.9
31 | CCC(N)(CO)CO.Cl [Working example C80] | 18.8 | 17.0 | 9.8
32 | CC(O)C(=O)O.NC(CO)(CO)CO [Working example C81] | 13.2 | 12.9 | 2.6
33 | NC(CO)(CO)CO.O=C(O)CC(O)(CC(=O)O)C(=O)O [Working example C82] | 10.3 | 9.8 | 5.0
34 | CS(=O)(=O)O.NC(CO)(CO)CO [Working example C83] | 14.2 | 14.0 | 1.1
35 | CC(O)C(=O)O.NCC(O)C(O)C(O)C(O)CO (stereo not drawn) [Working example C84] | 11.7 | 11.4 | 2.8
36 | CC(O)C(=O)O.N (stereo not drawn) [Working example C85] | 14.4 | 13.7 | 4.7
37 | CC(O)C(=O)[O-].CCC(CO)(CO)[N+](CC(O)CO)(CC(O)CO)CC(O)CO (stereo not drawn) [Working example C86] | 7.9 | 7.5 | 4.8
38 | CC(O)C(=O)[O-].OCC[N+](CCO)(CCO)CCO [Working example C87] | 11.2 | 10.7 | 4.8
39 | CC(=O)[O-].C[N+](C)(C)CCO [Working example C88] | 9.9 | 9.5 | 4.0
40 | C[N+](C)(C)CCO.O=C([O-])CO [Working example C89] | 9.1 | 8.9 | 2.6
41 | CC(O)C(=O)[O-].C[N+](C)(C)CCO [Working example C90] | 8.5 | 8.1 | 4.9
42 | C[N+](C)(C)CCO.O=C([O-])C=CC(=O)O [Working example C91] | 7.6 | 7.2 | 5.0
43 | C[N+](C)(C)CCO.O=C([O-])CCC(=O)O [Working example C92] | 7.5 | 7.1 | 5.0
44 | CS(=O)(=O)[O-].C[N+](C)(C)CCO [Working example C93] | 8.3 | 8.1 | 2.0
45 | C[N+](C)(C)CCO.O=P([O-])(O)O [Working example C94] | 8.2 | 8.0 | 2.8
46 | C[N+](C)(C)CCO.O=[PH2][O-] [Working example C95] | 9.6 | 9.3 | 2.9
47 | C[N+](C)(C)CCO.[Cl-] [Working example C96] | 11.4 | 10.7 | 6.0
